Source: a melting point compilation (Tetko et al.; mined from patent text by program, amines drawn as free bases though some values may be those of a salt)

SMILES	melting point [°C]
CC1(C)OC(c2ccc(S(C)(=O)=O)c(Br)c2)=C(c2ccccc2)C1=O	154 to 155
COc1ccc(N2CCN(c3c(C)c(C)c4c(c3C)C(C(C)(C)C)C(C)(C)O4)CC2)cc1 (configuration not stated)	144 to 146
CCOC(=O)C1=CC(=NO)[C@@H](NC(C)=O)[C@@H]2OC(C)(C)O[C@H]12	106 to 116
CON(C(=O)c1cn(C)nc1C(F)F)C(CF)Cc1c(Cl)cc(Cl)cc1Cl (configuration not stated)	117 to 118
CC(C)C(=O)N[C@H](CSSC[C@@H](NC(=O)C(C)C)C(=O)O)C(=O)O	135 to 137
CCCc1nc(C)n2cnnc2c1Cc1ccc(-c2ccccc2-c2nnn[nH]2)cc1	182 to 184
Cn1cccc1CCN1C(=O)NCc2c(-c3ccccc3)cccc21	158 to 161
C[Si](C)(C)c1cc(-c2ccc(F)cc2)c(-c2ccc(F)cc2)o1	82 to 83
COCCN(c1cccc2cc(-c3nccs3)[nH]c12)S(=O)(=O)c1cccs1	113 to 114
CN1CC(CCN2CCN(c3ccc(Br)cc3)CC2)OC1=O (configuration not stated)	125 to 127
CCCCC1OC(=O)c2cc([N+](=O)[O-])ccc21 (configuration not stated)	53 to 55
CCOC(=O)C(=NO)C1=Nc2ccc(Cl)cc2C(c2ccccc2Cl)=NC1	219 to 221
CN(C)C1CCN(C(=O)c2ccc(-c3[nH]nc4c3C(=O)c3c(NC(=O)NN5CCOCC5)cccc3-4)s2)C1 (configuration not stated)	216 to 217
COC(=O)c1cc(=O)c(O)co1	184 to 186
O=C=Nc1ccc(-c2n[nH]c3c2Cc2ccccc2-3)cc1	338 to 339
Cc1nc(CNc2c(C)cccc2C)n[nH]1	125 to 126
O=C(O)c1ccc2c(c1)C=C(n1ccnc1)CC2	323 to 326
O=C1c2ccccc2COc2ccc(CC(=O)N(O)C3CCCCC3)cc21	130 to 131
CN(C)C(=S)SCn1c(Br)c(Br)c(S(=O)(=O)C(F)(F)F)c1-c1ccc(Cl)cc1	185 to 187
CC(C)(NC(=O)c1cc2c(n(CC3CCCCC3)c1=O)CCCCCC2)C(=O)N(N)S(C)(=O)=O	177 to 178
CC(C#N)(COc1ccc(Cl)cc1)S(=O)(=O)Cc1ccc(Cl)cc1 (configuration not stated)	119 to 120
CCN(CC)C(=O)CCCCCN1CCC(NC(=O)c2cnc3c(OC)cccc3c2Nc2ccc(C(=O)NC3CCN(Cc4ccccc4)CC3)cc2)CC1	115 to 120
CCCc1c(OCCCCCOc2ccc3c(c2CCC)OC(C(=O)OCC)CC3=O)ccc(C(C)=O)c1O (configuration not stated)	80 to 81
O=C(NCCCN1CCN(c2ccc(F)cc2OCC(F)(F)F)CC1)c1conc1-c1ccc(F)cc1	122 to 123
CC(=O)NC1(c2ccc(CN3CCN(c4ccc(F)cc4F)CC3)cc2)CC1	124 to 125

SMILES	melting point [°C]
CCOC(=O)c1cn(C2COC2)c2c(F)c(F)c(F)c(NCc3ccccc3)c2c1=O	127 to 128
COCCc1nc2c(N)nc3ccccc3c2n1CC(C)C	168 to 170
Cc1ccc(-c2c(C(=O)NCc3cc(C(F)(F)F)cc(C(F)(F)F)c3)n(CCCCO)c(=O)c3cnccc23)cc1	128 to 131
COc1ccc(C)c(NCc2ccccc2)c1	81 to 82
CCOC(=O)C1=C(N)N=C(OCC)C(C(=O)OCC)C1c1ccc(-c2ccccc2)cc1 (configuration not stated)	145
O=C1COCCN1CCn1c2ccccc2c2c(N3CCCC3)nc(N3CCCC3)nc21	179 to 180
CC(C)CC(N=O)C(=O)NC(CC(C)C)C(=O)O (configuration not stated)	134 to 139
Cc1nc(-c2c(F)cccc2Cl)nn1-c1ccc(CO)cc1	120 to 122
CCS(=O)(=O)Nc1ccc(OC(=O)NC)cc1C	146 to 148
Nc1cc(Br)cnc1CCCCNC1=NS(=O)N=C1NCc1ccncc1 (configuration not stated)	63 to 66
N#Cc1ccc(-c2ccccc2OCC2CC2)[nH]c1=O	250 to 252
c1ccc(C2OC3(CCNCC3)c3ccccc32)cc1 (configuration not stated)	99 to 107
CN(C1CN(C(=O)Nc2ccc(C(F)(F)F)cc2)N=C1c1ccc(Cl)cc1)S(C)(=O)=O (configuration not stated)	105 to 112
Fc1ccc(Cn2c(NC3CCN(CCc4ccccc4)CC3)nc3ccc(F)cc32)cc1	178
Cc1ccc2c(c1)c(N1CCN(C(=O)c3cccs3)CC1)c(C#N)c(=O)n2CCN(C)C	110 to 117
CC(C)(C)c1ccc(C(=O)Nc2cn3cc(-c4cccnc4)ccc3n2)cn1	272 to 274
CN(CC(O)C(O)C(O)C(O)CO)C(=O)c1c(I)c(N)c(I)c(N)c1I (configuration not stated)	110
O=C(Nc1ccc(-n2nc(C(F)(F)F)cc2C(F)(F)F)cc1)c1ccc(F)cc1C(F)(F)F	178 to 179
O=C1COc2cc(NC(=O)C(=O)N3CCC(Cc4ccccc4)CC3)ccc2N1	123 to 126
CC1(C)CC2(CC(C)(C)N1)NC(=O)N(CC(O)COc1ccc(Cc3ccc(OCC(O)CN4C(=O)NC5(CC(C)(C)NC(C)(C)C5)C4=O)cc3)cc1)C2=O (configuration not stated)	113 to 118
COc1ccc(-n2cnc3ccc(-c4nnc(NCc5cccc(F)c5)o4)cc32)cc1	164 to 166
COc1ccc(CNc2nc(COCC(=O)O)nc3sc4c(c23)CCCC4)cc1Cl	136 to 137
CCCc1nc(OC)c(NC(=O)N2CCN(c3cc(C)cc(C)c3)CC2)cc1C	138 to 139
O=C(Nc1cc(-c2c(-c3ccc(F)cc3)nc3cccnn23)ccn1)c1ccncc1	226 to 227
Cc1c(Cl)ccc2c(=O)n(CCCN3CC=C(c4ccc(Cl)cc4)CC3)c(=O)[nH]c12	208 to 210

SMILES	melting point [°C]
CC1OC(=O)N(C(=O)NCCCN2CCC(c3ccc(F)cc3)CC2)C1c1ccc(F)c(F)c1 (configuration not stated)	108 to 112
CCOC(=O)[C@H](Cc1ccc(NC(=O)c2c(Cl)cncc2Cl)cc1)NC1=CC(=O)C12CCCCC2	194
CC(C)n1nc(-c2ccc(OCCCCl)cc2)c2sccc2c1=O	92 to 94
COc1cccc(CNC(=O)[C@@H]2CCCN(c3cccc4c3C(=O)N(Cc3ccncc3)C4=O)C2)c1OC	199 to 200
CCc1cc2c(=O)n3cc(C(=O)OC)ccc3nc2s1	151 to 152
S=C(OCc1ccc(Cl)c(Cl)c1)SC(Cn1ccnc1)c1ccc(Cl)cc1Cl (configuration not stated)	140
CC(C)=Cn1ncc(OCc2ccc(I)nc2)c(Cl)c1=O	141 to 142
O=C(Cc1cccs1)NC1CN(C(C(=O)O)c2ccc(OC(=O)c3ccccc3)cc2)C1=O (configuration not stated)	129 to 131
CCOC(=O)c1cc(=O)c2c(OCC(O)COc3ccccc3C)cccc2o1 (configuration not stated)	75 to 76
N#Cc1ncn(-c2cccc(Cl)c2F)c1I	182 to 183
O=C(O)c1ccc(/C=C/c2ccc(O)c(C34CC5CC(CC(C5)C3)C4)c2)cc1	279 to 280
COc1ccc(-c2cc3cc(OC)cc(C(=O)N(C)OC)c3o2)cc1	109 to 111
O=S(=O)(N[C@H](CO)[C@@H](c1cc(F)cc(F)c1)C(F)(F)F)c1ccc(Cl)s1	126
Cn1c(-c2ccc(-c3ccccn3)cc2)cnc1[C@H](Cc1ccccn1)N(C=O)c1cc2cc(Cl)ccc2o1	175 to 180
CC1=NN=C(C=Cc2ccccc2F)c2cc3c(cc2C1)OCO3	138 to 141
Nc1sc2c(c1C(=O)c1ccc(Cl)s1)CCCC2	173 to 175
CNC(=O)c1ccc(-c2ccc3nnn(Cc4ccc5ncccc5c4)c3n2)cc1	220 to 222
Fc1cc(Nc2ccc(Oc3ccccc3)cc2)ccn1	149
CC(=O)c1ccc(Nc2ccncc2N)cc1	165 to 166
COc1cc(C=O)c(OC)cc1Cl	109
CC(C)Cn1c(=O)[nH]c2ncc(-c3ccc(O)cc3)nc21	290 to 291
Cn1nc(-c2ccc(C(=O)O)cc2)nc1-c1ccccc1	243 to 244
c1cc(-c2csnn2)ccn1	121 to 123
NS(=O)(=O)c1ccc(-n2nc(C(F)(F)F)cc2-c2ccc(-c3ncco3)cc2)cc1	215 to 217
CCC(C)NC(=O)OC1c2ccccc2C(=O)N1c1ccc2ccc(Cl)nc2n1 (configuration not stated)	220 to 222

SMILES	melting point [°C]
O=C(c1ccccc1)N1CCc2[nH]c3cccc(CCCOc4ccccc4)c3c2CC1	121 to 124
Cn1nc(Cl)c(Cl)c1S(=O)(=O)CCCl	56 to 59
Clc1cnc(SCI)nc1	67
NC(=O)c1ccc2c([N+](=O)[O-])cc3c(c2c1)C(CCl)CN3 (configuration not stated)	> 300
O=C(O)c1ccc(COc2ccc(-c3ccc(-c4c(Cc5ccccc5)oc5ccccc45)cc3)cc2)cc1	208 to 210
O=C1NC(=O)C(Cc2cc(=O)n(Cc3ccc(Cl)cc3)c3ccccc23)S1 (configuration not stated)	142 to 144
O=C1OCCN1c1cccc(CCBr)c1	73 to 75
CCCCOc1cc(C(=O)O)n(Cc2ccc(Cl)cc2Cl)n1	154 to 155
CN1C2CCC1CC(NC(=O)c1cccc3nc(-c4ccccc4)oc13)C2 (configuration not stated)	164 to 166
N#Cc1cc(C(=O)NN2CCOCC2)ccc1O	238 to 240
Cc1cccc2c1C(=O)C1(CCOC1=O)S2 (configuration not stated)	106
NC(=NO)c1nn([C@@H]2O[C@H](CO)[C@@H](O)[C@H]2O)c2ncnc(N)c12	242 to 244
c1ccc(Nc2c(-c3ccccc3)sc3ccccc23)cc1	142 to 143
CCCCCS(=O)(=O)NC(=O)/C=C/c1ccc(OCCCS(C)(=O)=O)cc1Oc1ncc(C(F)(F)F)cc1Cl	194 to 196
C=CS(=O)(=O)C(C)(C)S(=O)(=O)C=C	121 to 122
CC(=O)NC[C@@H]1C[C@H]1c1c(F)ccc2nn(C)cc12 (relative stereo)	120
CN(C)c1cc[nH]c(=O)c1[N+](=O)[O-]	208 to 209
CN(C1CC(C)(C)NC(C)(C)C1)C1CC(C)(C)NC(C)(C)C1	51 to 53
CCCc1nc2c(N)nc3ccc(-c4ccc(CN)cc4)cc3c2s1	225 to 226
O=[N+]([O-])c1ccc(S(=O)(=O)CCCl)cc1	130
Cc1ccc2c(n1)sc1c(O)cnnc12	> 300
COc1csc(C)c1N	61 to 63
